Data reported in patent US8247211B2, “Glycopeptide antibiotics” (American Cyanamid Company, priority 2001, dated 2012).
Like-named read-outs stand apart in the source and are kept apart here. Numbered stars: 1 amine (or outer) side, 2 acyl side, 3 side chain; on linkers, the order of the positions; unused ones are H or OH. Square brackets hold non-standard residues; d marks the D form. Peptide text beside a SMILES is read from it. ξ: configuration not given here. X1 = N=C1NCC(C(O)C(N[*:1])C(=O)[*:2])N1C1OC(CO)C(O)C(O)C1O; ξEnduracididine(βξ-OH,4'ξ) = N=C1NCC(C(O)C(N)C(=O)O)N1; ξPhe(βξ-Me) = CC(c1ccccc1)C(N)C(=O)O

Legend:
[1] = test system: Staphylococcus aureus-SMITH (GC 4543); assay: Acute lethal infection in mice (ED50); assay type: in vivo; settings: female CD-1 mice, intraperitoneal challenge, intravenous dose 30 min. after infection, 7 day survival ratios
Method: The therapeutic effects of glycopeptide antibiotics of Formula I are determined against acute lethal infections with S. aureus (strain Smith), a penicillin resistant strain of S. pneumoniae (strain GC 1894), and a vancomycin resistant strain of E. fecalis (strain GC 6189 and GC 2246). Female mice, CD-1 (Charles River Laboratories), 20 +1-2 gm, are challenged by intraperitoneal injection of sufficient bacteria (suspended in Trypticase Soy Broth or hog gastric mucin) to kill non-treated controls within 24-48 hr. Antibacterial agents, contained in 0.2 mL of saline or 5% dextrose solution, are administered intravenously 30 min. after infection. Five mice are treated at each dose level. The 7 day survival ratios from 3 separate tests are pooled for calculation of median effective dose (ED50).

[2] = Anatomic pathology (heart and kidney histopathology) in mice; assay type: in vivo, CD-1 mice; settings: 20 mg/kg intravenously daily for 9 days, microscopic histopathology on day 10
Method: 20-day-old CD-1 mice were divided into a vehicle control group (5 mice) and a treatment group (5 mice). Samples of glycopeptide antibiotics were administered at 20 mg/kg intravenously daily for 9 days.
Samples of tissues from necropsied mice were formalin-fixed, paraffin-embedded, sectioned, stained with hematoxylin and eosin, and examined microscopically. Histopathologic findings were recorded. These findings were subjectively graded on a scale corresponding to slight, mild, moderate, marked and severe as compared to untreated controls.

[3] = test system: Escherichia coli; assay: In vitro antibacterial evaluation: minimum inhibitory concentration (MIC), broth dilution method; assay type: cell-based; settings: strain GC 4560
How it was run: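 MIC read as lowest drug level preventing visible growth. Organisms at 5×10^5 CFU/mL were exposed to a 64-0.06 μg/mL dilution series in Muller-Hinton II […] following NCCLS broth dilution standard M7-A2.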

[4] = test system: Staphylococcus sp.; assay: as above; assay type: cell-based
How it was run: (§1)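 Test strains, among them recent clinical isolates carrying methicillin, penicillin and/or vancomycin resistance, were inoculated at 5×10^5 CFU/mL. A broth dilution series spanning 64-0.06 μg/mL in Muller-Hinton II […] (NCCLS M7-A2) defined the MIC as the lowest growth-inhibiting concentration.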

[5] = test system: Enterococcus sp.; assay: as above; assay type: cell-based
How it was run: as §1

[6] = test system: Streptococcus sp.; assay: as above; assay type: cell-based
How it was run: as §1

[7] = test system: Escherichia coli; assay: as above; assay type: cell-based
[8] = broth dilution, 18 hours at 35° C.

Q: With `CC(c1ccccc1)C1NC(=O)CNC(=O)C(CO)NC(=O)C(C(O)C2CNC(=N)N2C2OC(CO)C(O)C(O)C2O)NC(=O)C(C(O)C2CNC(=N)N2)NC(=O)C(Cc2ccc(O)cc2)NC1=O` (stereo not drawn) [Example 55, Cyclo[glycyl-β-methylphenylalanyltyrosyl-3-(2-iminoimidazolidin-4-yl)seryl-3-(3-hexopyranosyl-2-iminoimidazolidin-4-yl)serylseryl]] (cyclo(G[ξPhe(βξ-Me)]Y[ξEnduracididine(βξ-OH,4'ξ)][X1]S); configuration not given here) as the compound, how does the “median effective dose (ED50), Staphylococcus aureus-SMITH (GC 4543)” value [1] read?
A: >8

Q: With `CC(c1ccccc1)C1NC(=O)CNC(=O)C(CO)NC(=O)C(C(O)C2CNC(=NCc3ccccc3)N2C2OC(CO)C(O)C(O)C2O)NC(=O)C(C(O)C2CNC(=N)N2)NC(=O)C(Cc2ccc(OC3OC(CO)C(OC4OC5COC6(OC5C(O)C4O)C4CC5CC(C4)CC6C5)C(O)C3O)cc2)NC1=O` (stereo not drawn) [Example 76, Cyclo[glycyl-β-methylphenylalanyl-O-[4-O-[4,6-O-(2-adamantylidene)hexopyranosyl]hexopyranosyl]tyrosyl-3-(2-iminoimidazolidin-4-yl)seryl-3-[2-(benzylimino)-3-hexopyranosylimidazolidin-4-yl]serylseryl]] as the compound, how does the “Anatomical Pathology (Day 10), Heart” value [2] read?
A: 0

Q: What about the “Anatomical Pathology (Day 10), Kidney” value [2] of the same compound?
A: ++

Q: What about the “MIC Escherichia coli (GC 4560)” value [3] of the same compound?
A: 2 to 4 µg/mL

Q: And the “MIC Coagulase Negative Staphylococcus (GC 4547)” value [4, 8]?
A: 2 to 4 µg/mL

Q: What about the “MIC Coagulase Negative Staphylococcus (GC 4548)” value [4, 8] of the same compound?
A: 2 to 4 µg/mL

Q: And the “MIC Coagulase Negative Staphylococcus (GC 4549)” value [4, 8]?
A: 2 to 4 µg/mL

Q: And the “MIC Coagulase Negative Staphylococcus (GC 4551)” value [4, 8]?
A: 2 to 8 µg/mL

Q: And the “MIC Coagulase Negative Staphylococcus (GC 6257)” value [4, 8]?
A: 0.5 to 2 µg/mL

Q: What about the “MIC Staphylococcus aureus (ATCC 29213)” value [4, 8] of the same compound?
A: 2 to 8 µg/mL

Q: And the “MIC Staphylococcus aureus (GC 1131)” value [4, 8]?
A: 4 to 8 µg/mL

Q: And the “MIC Staphylococcus aureus (GC 3051)” value [4, 8]?
A: 2 to 8 µg/mL

Q: What about the “MIC Staphylococcus aureus (GC 3053)” value [4, 8] of the same compound?
A: 2 to 8 µg/mL

Q: And the “MIC Staphylococcus aureus (GC 4541)” value [4, 8]?
A: 2 to 4 µg/mL

Q: And the “MIC Staphylococcus aureus (GC 4542)” value [4, 8]?
A: 2 to 8 µg/mL

Q: And the “MIC Staphylococcus aureus (GC 4544)” value [4, 8]?
A: 4 to 8 µg/mL

Q: What about the “MIC Staphylococcus aureus (GC 4545)” value [4, 8] of the same compound?
A: 2 to 8 µg/mL

Q: And the “MIC Staphylococcus aureus SMITH (GC 4543)” value [4, 8]?
A: 1 to 4 µg/mL

Q: And the “MIC Staphylococcus haemolyticus (GC 4546)” value [4, 8]?
A: 2 to 4 µg/mL

Q: What about the “MIC Staphylococcus aureus-SMITH (GC 4543)” value ([4]; strain SMITH GC 4543, broth dilution, 18 hours at 35° C.) of the same compound?
A: 1 to 4 µg/mL

Q: What about the “MIC Enterococcus faecium (GC 2243)” value ([5]; strain GC 2243) of the same compound?
A: 2 to 8 µg/mL

Q: What about the “MIC Enterococcus faecalis (GC 4553)” value ([5]; strain GC 4553) of the same compound?
A: 4 to 8 µg/mL

Q: What about the “MIC Enterococcus faecium (GC 4557)” value ([5]; strain GC 4557) of the same compound?
A: 1 to 2 µg/mL

Q: And the “MIC Enterococcus avium (GC 4558)” value ([5]; strain GC 4558)?
A: 2 to 8 µg/mL

Q: What does the source list for “Cyclo[3-[[2-(2,3,4,6-tetra-O-benzoylhexopyranosyl)amino]-1,3-benzoxazol-5-yl]alanyl-3-(2-iminoimidazolidin-4-yl)seryl-3-(3-hexopyranosyl-2-iminoimidazolidin-4-yl)seryl-serylglycyl-β-methylphenylalanyl] [Example 44]”?
A: MIC Streptococcus agalactiae (GC 4564) [6]: 16 µg/mL; MIC Streptococcus pneumoniae (ATCC 6301) [6]: 8 µg/mL; MIC Streptococcus pneumoniae (GC 1894) [6]: 16 µg/mL; MIC Streptococcus pneumoniae (GC 4565) [6]: 32 µg/mL; MIC Streptococcus pyogenes (GC 4563) [6]: 4 µg/mL; MIC Coagulase Negative Staphylococcus (GC 4547) [4]: 64 µg/mL; MIC Coagulase Negative Staphylococcus (GC 4548) [4]: 8 µg/mL; MIC Coagulase Negative Staphylococcus (GC 4549) [4]: 2 µg/mL; MIC Coagulase Negative Staphylococcus (GC 4551) [4]: 16 µg/mL; MIC Coagulase Negative Staphylococcus (GC 6257) [4]: 8 µg/mL; MIC Staphylococcus aureus (ATCC 29213) [4]: 64 µg/mL; MIC Staphylococcus aureus (GC 1131) [4]: 64 µg/mL; MIC Staphylococcus aureus (GC 3051) [4]: 64 µg/mL; MIC Staphylococcus aureus (GC 3053) [4]: 32 µg/mL; MIC Staphylococcus aureus (GC 4541) [4]: 64 µg/mL; MIC Staphylococcus aureus (GC 4542) [4]: 64 µg/mL; MIC Staphylococcus aureus (GC 4544) [4]: 16 µg/mL; MIC Staphylococcus aureus (GC 4545) [4]: 16 µg/mL; MIC Staphylococcus aureus SMITH (GC 4543) [4]: 32 µg/mL; MIC Staphylococcus aureus-SMITH (GC 4543) [4]: 32 µg/mL; MIC Staphylococcus haemolyticus (GC 4546) [4]: 64 µg/mL; MIC Enterococcus avium (GC 4558) [5]: 4 µg/mL; MIC Enterococcus faecalis (ATCC 29212) [5]: 16 µg/mL; MIC Enterococcus faecalis (GC 2242) [5]: 16 µg/mL; MIC Enterococcus faecalis (GC 2691) [5]: 16 µg/mL; MIC Enterococcus faecalis (GC 3059) [5]: 32 µg/mL; MIC Enterococcus faecalis (GC 4552) [5]: 16 µg/mL; MIC Enterococcus faecalis (GC 4553) [5]: 8 µg/mL; MIC Enterococcus faecalis (GC 4554) [5]: 32 µg/mL; MIC Enterococcus faecalis (GC 6189) [5]: 16 µg/mL; MIC Enterococcus faecium (GC 2243) [5]: 8 µg/mL; MIC Enterococcus faecium (GC 4556) [5]: 32 µg/mL; MIC Enterococcus faecium (GC 4557) [5]: 8 µg/mL; MIC Escherichia coli (ATCC 25922) [7]: >64 µg/mL; MIC Escherichia coli (GC 4559) [7]: >64 µg/mL; MIC Escherichia coli (GC 4560) [7]: 64 µg/mL
